Laboratory results as given in patent US6461844B1, “Liver GalNAc-1-phosphate kinase” (The Board of Trustees of the University of Arkansas, priority 1995, dated 2002).
Entries after “also recorded” stand apart in the source; their conditions may differ.

Experiments:
[1] = target: T1, GalNAc kinase (Sus scrofa, UniProt A0A287BB25); assay: Sugar specificity of GalNAc kinase; assay type: biochemical, pig; conditions: for Radioactivity Incorp.: labeled sugars of same specific activity; for activity as phosphate acceptor: purified kinase; for activity as % of the activity observed with GalNAc: sugar as substrate
T1 construct: This enzyme was purified about 1400-fold from the cytosolic fraction of pig kidney; from tissue; host or cells: pig kidney cytosol
Procedure: (§1) GalNAc kinase activity was assayed in incubation mixtures of 200 μl containing the following components: [^3H]GalNAc (10,000 cpm), 1 μmole of ATP, 2 μmoles of MgCl2, 20 μmoles of Tris-HCl buffer, pH 7.5, and various amounts of the enzyme preparations to be assayed. Following an incubation for the appropriate time, the reaction was stopped by heating at 100° C. for 5 min., and the incubation mixture was applied to a column of DE-52. The column was washed with at least 5 column volumes of 10 mM (NH4)HCO3 buffer to remove unbound material, and then GalNAc phosphate was eluted with 500 mM ammonium bicarbonate. Aliquots of the wash and eluent were removed and assayed for their radioactive content by scintillation counting.
A variety of sugars were tested and in each case the specific radioactivity of the labeled sugar was adjusted with unlabeled material so that all were of the same specific activity in order to allow a true comparison of their ability to serve as substrates for the kinase. The amount of radioactivity that bound to DE-52 and was eluted with (NH4)HCO3 was taken as a measure of phosphorylation by the enzyme.

[2] = target: T2, yeast galactokinase (Saccharomyces cerevisiae, UniProt P04385); assay: Sugar specificity of yeast galactokinase; assay type: biochemical; conditions: for Radioactivity Incorporated (Δ cpm): minus 0 ul value
T2 construct: purchased Sigma Chemical Co
T2 sequence (P04385 1-528): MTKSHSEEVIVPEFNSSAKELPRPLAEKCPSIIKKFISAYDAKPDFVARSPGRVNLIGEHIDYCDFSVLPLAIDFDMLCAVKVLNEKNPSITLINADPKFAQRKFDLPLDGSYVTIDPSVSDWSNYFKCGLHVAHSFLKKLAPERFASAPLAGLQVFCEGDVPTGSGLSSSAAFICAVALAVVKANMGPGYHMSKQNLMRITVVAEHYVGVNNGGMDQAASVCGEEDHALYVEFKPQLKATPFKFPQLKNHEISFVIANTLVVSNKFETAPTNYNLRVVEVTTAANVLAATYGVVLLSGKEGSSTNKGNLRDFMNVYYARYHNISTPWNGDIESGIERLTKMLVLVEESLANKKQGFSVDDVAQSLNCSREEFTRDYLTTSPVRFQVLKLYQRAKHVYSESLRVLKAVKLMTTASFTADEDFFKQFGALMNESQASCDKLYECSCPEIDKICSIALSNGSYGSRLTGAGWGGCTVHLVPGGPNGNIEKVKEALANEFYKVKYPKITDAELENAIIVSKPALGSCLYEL
Excerpt: Galactokinase is an enzyme known to phosphorylate galactose in the one position. […] The specificity of the galactokinase and the GalNAc kinase indicate that they are two different enzymes.

[3] = target: T1, GalNAc kinase; assay: Phosphate donor specificity of GalNAc kinase; assay type: biochemical, pig; design: Radioactivity in Sugar-P: unit not given beside the values; conditions: for Radioactivity in Sugar-P / Specific Activity: nucleotide added at 5 mM
[4] = target: T1, GalNAc kinase; assay: Divalent cation requirement of GalNAc kinase; assay type: biochemical, pig; conditions: for stimulation of the kinase: tested at a variety of concentrations; for maximum activity relative to optimum concentrations of Mg++: at optimum cation concentration
Procedure: FIG. 1 illustrates the effect of various divalent cations on the GalNAc kinase. Various amounts of Mg^++, Mn^++, or Co^++ were added to incubations prepared as indicated below. The amount of GalNAc phosphorylated in each incubation by the purified enzyme was determined as described in the assay conditions.
as §1
The addition of Mg^++ greatly stimulated the activity, and maximum activity occurred at 6 mM Mg^++. Other divalent cations, such as Mn^++ and Co^++ were also somewhat stimulatory, but much less so than Mg^++.

[5] = target: T1, GalNAc kinase; assay: Effect of sulfhydryl reagents on GalNAc kinase activity; assay type: biochemical, pig; conditions: for Activity (cpm in Sugar-P): control 8700
Procedure: as §1
In order to determine whether sulfhydryl groups are necessary for catalytic activity, the effects of various compounds known to react with and inactivate sulfhydryl groups, were examined on the kinase activity.

[6] = system: UDP-GlcNAc pyrophosphorylases; conditions: UDP-GlcNAc = 100%; cited from earlier work

T1 sequence (A0A287BB25 1-458): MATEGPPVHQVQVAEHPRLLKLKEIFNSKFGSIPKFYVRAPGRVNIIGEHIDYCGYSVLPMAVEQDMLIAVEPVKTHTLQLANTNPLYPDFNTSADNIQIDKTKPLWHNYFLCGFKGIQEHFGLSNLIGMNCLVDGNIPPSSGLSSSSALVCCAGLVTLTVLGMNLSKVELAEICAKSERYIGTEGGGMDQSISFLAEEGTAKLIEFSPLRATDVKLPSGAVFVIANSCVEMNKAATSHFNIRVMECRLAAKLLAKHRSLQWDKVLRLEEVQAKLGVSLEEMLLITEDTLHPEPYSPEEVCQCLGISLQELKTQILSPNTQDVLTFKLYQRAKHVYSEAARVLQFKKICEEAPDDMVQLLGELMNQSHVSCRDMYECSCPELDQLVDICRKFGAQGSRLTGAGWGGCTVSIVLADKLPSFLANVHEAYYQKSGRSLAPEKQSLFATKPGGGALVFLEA

Compound: N[C@H]1C(O)O[C@H](CO)[C@@H](O)[C@@H]1O (stereo partly shown) [GlcN, glucosamine]
- Radioactivity Incorp. ([1]; 4 μl enzyme): 189 cpm
- Radioactivity Incorp. ([1]; 8 μl enzyme): 206 cpm
- activity as phosphate acceptor [1]: inactive
- Radioactivity Incorporated ([2]; 2 ul enzyme): 135 cpm
- Radioactivity Incorporated (Δ cpm) ([2]; 2 ul enzyme): 0 cpm
- Radioactivity Incorporated ([2]; 4 ul enzyme): 150 cpm
- Radioactivity Incorporated (Δ cpm) ([2]; 4 ul enzyme): 0 cpm

Compound: Nc1ccn([C@@H]2O[C@H](COP(=O)(O)OP(=O)(O)O)[C@@H](O)[C@H]2O)c(=O)n1 [CDP]
- activity as phosphate donor [3]: only slightly above background levels
- Radioactivity in Sugar-P [3]: 490
- Specific Activity [3]: 7.6 nmol/mg

Compound: O=c1ccn([C@@H]2O[C@H](COP(=O)(O)OP(=O)(O)OP(=O)(O)O)[C@@H](O)[C@H]2O)c(=O)[nH]1 [UTP]
- Radioactivity in Sugar-P [3]: 180
- Specific Activity [3]: 2.8 nmol/mg

Compound: CC(=O)N[C@H]1C(O)O[C@H](CO)[C@H](O)[C@@H]1O (stereo partly shown) [GalNAc, N-acetylgalactosamine]
- Radioactivity Incorp. ([1]; 4 μl enzyme): 14,094 cpm
- Radioactivity Incorp. ([1]; 8 μl enzyme): 18,448 cpm
- activity as substrate of yeast galactokinase [2]: no phosphorylation
- Radioactivity Incorporated ([2]; 2 ul enzyme): 37 cpm
- Radioactivity Incorporated (Δ cpm) ([2]; 2 ul enzyme): 0 cpm
- Radioactivity Incorporated ([2]; 4 ul enzyme): 83 cpm
- Radioactivity Incorporated (Δ cpm) ([2]; 4 ul enzyme): 11 cpm

Compound: N[C@H]1C(O)O[C@H](CO)[C@H](O)[C@@H]1O (stereo partly shown) [GalN, galactosamine]
- Radioactivity Incorp. ([1]; 4 μl enzyme): 449 cpm
- Radioactivity Incorp. ([1]; 8 μl enzyme): 468 cpm
- activity as phosphate acceptor [1]: inactive
- activity as % of the activity observed with GalNAc [1]: 1%
- activity as substrate of yeast galactokinase [2]: slight activity
- Radioactivity Incorporated ([2]; 2 ul enzyme): 300 cpm
- Radioactivity Incorporated (Δ cpm) ([2]; 2 ul enzyme): 173 cpm
- Radioactivity Incorporated ([2]; 4 ul enzyme): 440 cpm

Compound: [Fe+3] [Fe^+++]
- stimulation of the kinase [4]: inactive

Compound: [Ca+2] [Ca^++]
- stimulation of the kinase [4]: inactive

Compound: O=c1ccn([C@@H]2O[C@H](COP(=O)(O)OP(=O)(O)O)[C@@H](O)[C@H]2O)c(=O)[nH]1 [UDP]
- Radioactivity in Sugar-P [3]: 30
- Specific Activity [3]: 0.5 nmol/mg

Compound: CCN1C(=O)C=CC1=O [NEM, N-ethylmaleimide]
- inhibition at 500 µM ([5]; 0.5 mM, read-out: inhibition of enzymatic activity): 90%
- Activity (cpm in Sugar-P) ([5]; inhibitor 0.1 mM): 9050 cpm
- Activity (cpm in Sugar-P) ([5]; inhibitor 0.5 mM): 805 cpm
- Activity (cpm in Sugar-P) ([5]; inhibitor 1 mM): 40 cpm
- Activity (cpm in Sugar-P) ([5]; inhibitor 2 mM): 0 cpm
- Activity (cpm in Sugar-P) ([5]; inhibitor 4 mM): 0 cpm

Compound: CC(=O)OP(=O)(O)O [acetylphosphate]
- activity as phosphate donor [3]: No activity

Compound: NC(=O)CI [IAA, iodoacetamide]
- concentration at which effective as an inhibitor [5]: above 1 mM
- Activity (cpm in Sugar-P) ([5]; inhibitor 0.1 mM): 8260 cpm
- Activity (cpm in Sugar-P) ([5]; inhibitor 0.5 mM): 7660 cpm
- Activity (cpm in Sugar-P) ([5]; inhibitor 1 mM): 5490 cpm
- Activity (cpm in Sugar-P) ([5]; inhibitor 2 mM): 2170 cpm
- Activity (cpm in Sugar-P) ([5]; inhibitor 4 mM): 658 cpm

Compound: [Mn+2] [Mn^++]
- cation concentration for maximum (optimum) activity [4]: 2 to 8 mM
- maximum activity relative to optimum concentrations of Mg++ [4]: about 50%

Compound: O=C(O)c1cc[c]([Hg][Cl])cc1 [pCMB, p-chloromercuribenzoate]
- inhibition of enzymatic activity ([5]; 0.02 mM): over 70%
- inhibition of enzymatic activity ([5]; 0.04 mM): complete inhibition
- Activity (cpm in Sugar-P) ([5]; inhibitor 0.02 mM): 2660 cpm
- Activity (cpm in Sugar-P) ([5]; inhibitor 0.04 mM): 250 cpm
- Activity (cpm in Sugar-P) ([5]; inhibitor 0.06 mM): 30 cpm
- Activity (cpm in Sugar-P) ([5]; inhibitor 0.1 mM): 20 cpm
- Activity (cpm in Sugar-P) ([5]; inhibitor 0.25 mM): 50 cpm

Compound: CC(=O)N[C@@H]1C(O)O[C@H](CO)[C@@H](O)[C@@H]1O (stereo partly shown) [ManNAc, N-acetylmannosamine]
- Radioactivity Incorp. ([1]; 4 μl enzyme): 475 cpm
- Radioactivity Incorp. ([1]; 8 μl enzyme): 89 cpm
- activity as phosphate acceptor [1]: inactive

Compound: Nc1nc2c(ncn2[C@@H]2O[C@H](COP(=O)(O)OP(=O)(O)O)[C@@H](O)[C@H]2O)c(=O)[nH]1 [GDP]
- Radioactivity in Sugar-P [3]: 10
- Specific Activity [3]: 0.1 nmol/mg

Compound: Nc1nc2c(ncn2[C@@H]2O[C@H](COP(=O)(O)OP(=O)(O)OP(=O)(O)O)[C@@H](O)[C@H]2O)c(=O)[nH]1 [GTP]
- activity as phosphate donor [3]: only slightly above background levels
- Radioactivity in Sugar-P [3]: 300
- Specific Activity [3]: 4.7 nmol/mg

Compound: [Ni+2] [Ni^++]
- stimulation of the kinase [4]: inactive

Compound: Nc1ncnc2c1ncn2[C@@H]1O[C@H](COP(=O)(O)OP(=O)(O)O)[C@@H](O)[C@H]1O [ADP]
- activity as phosphate donor [3]: only slightly above background levels
- Radioactivity in Sugar-P [3]: 260
- Specific Activity [3]: 4.0 nmol/mg

Compound: [Cu+2] [Cu^++]
- stimulation of the kinase [4]: inactive

Compound: O=C[C@H](O)[C@@H](O)[C@@H](O)[C@H](O)CO [Gal, galactose]
- Radioactivity Incorp. ([1]; 4 μl enzyme): 301 cpm
- Radioactivity Incorp. ([1]; 8 μl enzyme): 442 cpm
- activity as phosphate acceptor [1]: inactive
- activity as % of the activity observed with GalNAc [1]: 1%
- activity as substrate of yeast galactokinase [2]: very active
- Radioactivity Incorporated ([2]; 2 ul enzyme): 6900 cpm
- Radioactivity Incorporated (Δ cpm) ([2]; 2 ul enzyme): 6835 cpm
- Radioactivity Incorporated ([2]; 4 ul enzyme): 7530 cpm
- Radioactivity Incorporated (Δ cpm) ([2]; 4 ul enzyme): 7465 cpm

Compound: O=c1[nH]cnc2c1ncn2[C@@H]1O[C@H](COP(=O)(O)OP(=O)(O)OP(=O)(O)O)[C@@H](O)[C@H]1O [ITP]
- activity as phosphate donor [3]: slight activity; also recorded: some activity
- Radioactivity in Sugar-P [3]: 900
- Specific Activity [3]: 14.1 nmol/mg

Compound: [Mo+2] [Mo^++]
- stimulation of the kinase [4]: inactive

Compound: CC(=O)N[C@H]1[C@@H](OP(=O)(O)OP(=O)(O)OC[C@H]2O[C@@H](n3ccc(=O)[nH]c3=O)[C@H](O)[C@@H]2O)O[C@H](CO)[C@@H](O)[C@@H]1O [UDP-GlcNAc]
- activity towards substrate [6]: 100%

Compound: [Zn+2] [Zn^++]
- stimulation of the kinase [4]: inactive

Compound: [Co+2] [Co^++]
- cation concentration for maximum (optimum) activity [4]: 10 mM
- maximum activity relative to optimum concentrations of Mg++ [4]: about 50%

Compound: CC(=O)N[C@H]1C(O)O[C@H](CO)[C@@H](O)[C@@H]1O (stereo partly shown) [GlcNAc, N-acetylglucosamine]
- Radioactivity Incorp. ([1]; 4 μl enzyme): 135 cpm
- Radioactivity Incorp. ([1]; 8 μl enzyme): 147 cpm
- activity as phosphate acceptor [1]: inactive
- Radioactivity Incorporated ([2]; 2 ul enzyme): 133 cpm
- Radioactivity Incorporated (Δ cpm) ([2]; 2 ul enzyme): 60 cpm
- Radioactivity Incorporated ([2]; 4 ul enzyme): 84 cpm
- Radioactivity Incorporated (Δ cpm) ([2]; 4 ul enzyme): 10 cpm

Compound: C=C(OP(=O)(O)O)C(=O)O [phosphoenolpyruvate]
- activity as phosphate donor [3]: No activity

Compound: Nc1ccn([C@@H]2O[C@H](COP(=O)(O)OP(=O)(O)OP(=O)(O)O)[C@@H](O)[C@H]2O)c(=O)n1 [CTP]
- activity as phosphate donor [3]: only slightly above background levels
- Radioactivity in Sugar-P [3]: 370
- Specific Activity [3]: 5.8 nmol/mg
